Measured values as given in ChEMBL document CHEMBL6071176, “Development of Phloroglucinol-Linked Tris-Quaternary Ammonium Salt Antimicrobial Peptide Mimics with Low Cytotoxicity and Broad-Spectrum Antibacterial Activity” (J Med Chem, 2024).
≈ marks a conversion by molar mass, not a printed value.

What was measured:
Staphylococcus aureus = assay: Antimicrobial activity against Staphylococcus aureus assessed as inhibition of growth incubated for 18 hrs by CLSI guidelines based assay; type: functional
Enterococcus faecalis = assay: Antimicrobial activity against Enterococcus faecalis assessed as inhibition of growth incubated for 18 hrs by CLSI guidelines based assay; type: functional
[1] = Selectivity index, ratio of HC50 for sheep red blood cells to MIC for Staphylococcus aureus; type: toxicity, cell-based, RBC; details: read-out: Selectivity Index
Escherichia coli = assay: Antimicrobial activity against Escherichia coli assessed as inhibition of growth incubated for 18 hrs by CLSI guidelines based assay; type: functional
[2] = test system: Stenotrophomonas maltophilia; assay: Antimicrobial activity against Stenotrophomonas maltophilia assessed as inhibition of growth incubated for 18 hrs by CLSI guidelines based assay; type: functional
[3] = Hemolytic activity in sheep red blood cells measured after 1 hr incubation; type: toxicity, cell-based, Ovis aries, Erythrocyte
[4] = Cytotoxicity against human Gastric mucosal cells measured after 24 hrs by CCK-8 assay; type: toxicity, cell-based, Gastric mucosal cell

Row | SMILES | MIC (Staphylococcus aureus) [µg/mL] | MIC (Enterococcus faecalis) [µg/mL] | selectivity ratio [1] | MIC (Escherichia coli) [µg/mL] | MIC [2] [µg/mL] | HC50 at 1 h [3] [µg/mL] | CC50 at 24 h [4] [µg/mL]
1 | C[N+](C)(CCCCCOc1ccccc1)CCCCOc1cc(OCCCC[N+](C)(C)CCCCCOc2ccccc2)cc(OCCCC[N+](C)(C)CCCCCOc2ccccc2)c1.[Br-].[Br-].[Br-] | 1 | 2 | > 1280 | 16 | 16 | > 1280 | 
2 | CCCCCCCCCC[N+](C)(C)CCCOc1cc(OCCC[N+](C)(C)CCCCCCCCCC)cc(OCCC[N+](C)(C)CCCCCCCCCC)c1.[Br-].[Br-].[Br-] | 1 | 1 | 54 | 4 | 4 | 54 | 
3 | CCCCCCCCCC[N+](C)(C)CCCCOc1cc(OCCCC[N+](C)(C)CCCCCCCCCC)cc(OCCCC[N+](C)(C)CCCCCCCCCC)c1.[Br-].[Br-].[Br-] | 4 | 0.5 | 8.5 | 4 | 4 | 34 | 
4 | CCCCCCCCCC[N+](C)(C)CCCCCOc1cc(OCCCCC[N+](C)(C)CCCCCCCCCC)cc(OCCCCC[N+](C)(C)CCCCCCCCCC)c1.[Br-].[Br-].[Br-] | 4 | 2 | 4 | 4 | 4 | 16 | 
5 | C[N+](C)(CCCCOc1ccccc1)CCCCOc1cc(OCCCC[N+](C)(C)CCCCOc2ccccc2)cc(OCCCC[N+](C)(C)CCCCOc2ccccc2)c1.[Br-].[Br-].[Br-] | 2 | 4 | > 640 | 64 | 32 | > 1280 | 
6 | C[N+](C)(CCCOc1ccccc1)CCCOc1cc(OCCC[N+](C)(C)CCCOc2ccccc2)cc(OCCC[N+](C)(C)CCCOc2ccccc2)c1.[Br-].[Br-].[Br-] | 32 | 64 | > 40 | > 128 | > 128 | > 1280 | 
7 | CCCCCCCC[N+](C)(C)CCCCOc1cccc(OCCCC[N+](C)(C)CCCCCCCC)c1OCCCC[N+](C)(C)CCCCCCCC.[Br-].[Br-].[Br-] | 1 | 1 | 847 | 2 | 1 | 847 | 
8 | CCCCCCCCCCCC[N+](C)(C)CCCOc1cc(OCCC[N+](C)(C)CCCCCCCCCCCC)cc(OCCC[N+](C)(C)CCCCCCCCCCCC)c1.[Br-].[Br-].[Br-] | 8 | 4 | 1.25 | 32 | 32 | 10 | 
9 | C[C@@H](O)[C@H]1C(=O)N2C(C(=O)O)=C(S[C@@H]3CN[C@H](C(=O)N(C)C)C3)[C@H](C)[C@H]12 [MEROPENEM] | 0.5 (≈ 1.3 µM) | 2 (≈ 5.22 µM) | 2440 | 1 (≈ 2.61 µM) | 1 (≈ 2.61 µM) | 1220 | 
10 | C[N+](C)(CCCCc1ccccc1)CCCOc1cc(OCCC[N+](C)(C)CCCCc2ccccc2)cc(OCCC[N+](C)(C)CCCCc2ccccc2)c1.[Br-].[Br-].[Br-] | 8 | 16 | > 160 | 128 | 128 | > 1280 | 
11 | CS(=O)(=O)c1ccc([C@@H](O)[C@@H](CF)NC(=O)C(Cl)Cl)cc1 [FLORFENICOL] |  |  |  |  |  |  | 121 (≈ 339 µM)
12 | C[N+](C)(CCCCOc1ccccc1)CCCOc1cc(OCCC[N+](C)(C)CCCCOc2ccccc2)cc(OCCC[N+](C)(C)CCCCOc2ccccc2)c1.[Br-].[Br-].[Br-] | 32 | 64 | > 40 | 128 | 128 | > 1280 | 
13 | C[N+](C)(CCCCOc1cc(OCCCC[N+](C)(C)CCCCc2ccccc2)cc(OCCCC[N+](C)(C)CCCCc2ccccc2)c1)CCCCc1ccccc1.[Br-].[Br-].[Br-] | 2 | 4 | > 640 | 64 | 32 | > 1280 | 
14 | C=C[C@]1(C)C[C@@H](OC(=O)CSC(C)(C)CNC(=O)[C@H](N)C(C)C)[C@]2(C)[C@H](C)CC[C@]3(CCC(=O)[C@H]32)[C@@H](C)[C@@H]1O [VALNEMULIN] |  |  |  |  |  |  | 45.7 (≈ 80.9 µM)
15 | CCCC[N+](C)(C)CCCCOc1cc(OCCCC[N+](C)(C)CCCC)cc(OCCCC[N+](C)(C)CCCC)c1.[Br-].[Br-].[Br-] | 128 | 128 | > 10 | 128 | 128 | > 1280 | 
16 | CCCCCCCCCCCC[N+](C)(C)CCCCCOc1cc(OCCCCC[N+](C)(C)CCCCCCCCCCCC)cc(OCCCCC[N+](C)(C)CCCCCCCCCCCC)c1.[Br-].[Br-].[Br-] | 16 | 2 | 0.75 | 64 | 64 | 12 | 
17 | C[N+](C)(CCCCOc1cc(OCCCC[N+](C)(C)CCCOc2ccccc2)cc(OCCCC[N+](C)(C)CCCOc2ccccc2)c1)CCCOc1ccccc1.[Br-].[Br-].[Br-] | 4 | 2 | > 320 | > 128 | 64 | > 1280 | 
18 | C[N+](C)(CCCOc1cc(OCCC[N+](C)(C)CCCc2ccccc2)cc(OCCC[N+](C)(C)CCCc2ccccc2)c1)CCCc1ccccc1.[Br-].[Br-].[Br-] | 32 | 32 | > 40 | > 128 | > 128 | > 1280 | 
19 | CCCCCCCCCCCC[N+](C)(C)CCOc1ccccc1 [DOMIPHEN] |  |  |  |  |  |  | 74.5
20 | CCCCCC[N+](C)(C)CCCCOc1cc(OCCCC[N+](C)(C)CCCCCC)cc(OCCCC[N+](C)(C)CCCCCC)c1.[Br-].[Br-].[Br-] | 32 | 8 | > 40 | 128 | 128 | > 1280 | 
21 | CCCCCCCCCCCC[N+](C)(C)CCCCOc1cc(OCCCC[N+](C)(C)CCCCCCCCCCCC)cc(OCCCC[N+](C)(C)CCCCCCCCCCCC)c1.[Br-].[Br-].[Br-] | 8 | 4 | 1.38 | 8 | 32 | 11 | 
22 | C[N+](C)(CCCCCOc1ccccc1)CCCOc1cc(OCCC[N+](C)(C)CCCCCOc2ccccc2)cc(OCCC[N+](C)(C)CCCCCOc2ccccc2)c1.[Br-].[Br-].[Br-] | 4 | 8 | > 320 | 32 | 32 | > 1280 | 
23 | C[N+](C)(CCCCOc1cc(OCCCC[N+](C)(C)CCCc2ccccc2)cc(OCCCC[N+](C)(C)CCCc2ccccc2)c1)CCCc1ccccc1.[Br-].[Br-].[Br-] | 8 | 16 | > 160 | > 128 | > 128 | > 1280 | 
24 | C[N+](C)(CCCCCOc1cc(OCCCCC[N+](C)(C)CCCc2ccccc2)cc(OCCCCC[N+](C)(C)CCCc2ccccc2)c1)CCCc1ccccc1.[Br-].[Br-].[Br-] | 1 | 1 | > 1280 | 8 | 16 | > 1280 | 
25 | CCCC[N+](C)(C)CCCCCOc1cc(OCCCCC[N+](C)(C)CCCC)cc(OCCCCC[N+](C)(C)CCCC)c1.[Br-].[Br-].[Br-] | 64 | 128 | > 20 | 32 | 128 | > 1280 | 
26 | CCCCCCCC[N+](C)(C)CCCCOc1ccc(OCCCC[N+](C)(C)CCCCCCCC)c(OCCCC[N+](C)(C)CCCCCCCC)c1.[Br-].[Br-].[Br-] | 0.5 | 0.5 | > 2560 | 2 | 1 | > 1280 | 
